Test results from ChEMBL document CHEMBL3112505, “Discovery of novel indazole derivatives as dual angiotensin II antagonists and partial PPARγ agonists” (Bioorg Med Chem Lett, 2014).
Activity calls are given as the source filed them. The rule behind the calls is not given here.

Experiments:
Rattus norvegicus [1] = assay: Reduction in free fatty acid level in Zucker fa/fa rat plasma at 75 mg/kg, po qd for 5 days relative to vehicle-treated control control; format: functional, organism-based; parameters: dose 75 mg/kg
[2] = AUC in Zucker fa/fa rat at 5.2 mg/kg, iv; format: ADME, organism-based; parameters: dose 5.2 mg/kg, route intravenous; conditions: plasma
[3] = Clearance in Zucker fa/fa rat at 5.2 mg/kg, iv; format: ADME, organism-based; parameters: dose 5.2 mg/kg, route intravenous; conditions: in vivo
[4] = Volume of distribution at steady state in Zucker fa/fa rat 5.2 mg/kg, iv; format: ADME, organism-based; parameters: dose 5.2 mg/kg, route intravenous; conditions: in vivo, read-out: Vdss
Rattus norvegicus [5] = assay: Reduction in triglyceride level in Zucker fa/fa rat plasma at 75 mg/kg, po qd for 5 days relative to vehicle-treated control control; format: functional, organism-based; parameters: dose 75 mg/kg
Rattus norvegicus [6] = assay: Antihypertensive activity in dosed SHR NCrl rat assessed as decrease in diastolic blood pressure at 10 mg/kg, po administered daily for 12 days relative to vehicle-treated control control; format: functional, organism-based; parameters: dose 10 mg/kg; conditions: Artery
[7] = Half life in Zucker fa/fa rat at 5.2 mg/kg, iv; format: ADME, organism-based; parameters: dose 5.2 mg/kg, route intravenous; conditions: in vivo
[8] = AUC in Zucker fa/fa rat at 30 mg/kg, po; format: ADME, organism-based; parameters: dose 30 mg/kg, route oral; conditions: plasma
[9] = Oral bioavailability in Zucker fa/fa rat at 30 mg/kg; format: ADME, organism-based; conditions: in vivo
Rattus norvegicus [10] = assay: Antihypertensive activity in dosed SHR NCrl rat assessed as decrease in diastolic blood pressure at 10 mg/kg, po administered daily for 12 days relative to baseline control; format: functional, organism-based; parameters: dose 10 mg/kg; conditions: Artery
Rattus norvegicus [11] = assay: Reduction in insulin level in Zucker fa/fa rat plasma at 75 mg/kg, po qd for 5 days relative to vehicle-treated control control; format: functional, organism-based; parameters: dose 75 mg/kg
[12] = biological target: T1, Peroxisome proliferator-activated receptor gamma (Homo sapiens, UniProt P37231); assay: Partial agonist activity at human PPARgamma expressed in CV-1 cells by reporter gene assay; format: cell-based
T1 sequence (P37231 whole entry): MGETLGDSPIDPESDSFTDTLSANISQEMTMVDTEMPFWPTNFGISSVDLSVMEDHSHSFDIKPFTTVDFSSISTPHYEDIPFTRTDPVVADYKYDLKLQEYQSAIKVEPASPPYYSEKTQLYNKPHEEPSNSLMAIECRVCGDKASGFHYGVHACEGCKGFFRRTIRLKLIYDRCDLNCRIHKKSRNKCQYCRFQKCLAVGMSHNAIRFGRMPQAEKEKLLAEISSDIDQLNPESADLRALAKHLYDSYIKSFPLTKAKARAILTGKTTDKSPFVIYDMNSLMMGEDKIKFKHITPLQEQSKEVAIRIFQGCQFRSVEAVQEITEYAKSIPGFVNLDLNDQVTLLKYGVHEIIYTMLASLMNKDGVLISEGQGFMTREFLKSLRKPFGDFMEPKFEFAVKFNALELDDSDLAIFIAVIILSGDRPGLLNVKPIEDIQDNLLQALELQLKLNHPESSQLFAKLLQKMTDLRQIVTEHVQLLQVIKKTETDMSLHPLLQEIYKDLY

[13] = biological target: T2, Peroxisome proliferator-activated receptor gamma (Homo sapiens) (UniProt P37231); assay: Partial agonist activity at human PPARgamma expressed in CV-1 cells by reporter gene assay relative to rosiglitazone; format: cell-based
T2 sequence (whole entry): T1 sequence (P37231 whole entry)

[14] = biological target: T3, Peroxisome proliferator-activated receptor gamma (Mus musculus) (UniProt P37238); assay: Partial agonist activity at mouse PPARgamma expressed in CV-1 cells by reporter gene assay relative to rosiglitazone; format: cell-based
T3 sequence (whole entry): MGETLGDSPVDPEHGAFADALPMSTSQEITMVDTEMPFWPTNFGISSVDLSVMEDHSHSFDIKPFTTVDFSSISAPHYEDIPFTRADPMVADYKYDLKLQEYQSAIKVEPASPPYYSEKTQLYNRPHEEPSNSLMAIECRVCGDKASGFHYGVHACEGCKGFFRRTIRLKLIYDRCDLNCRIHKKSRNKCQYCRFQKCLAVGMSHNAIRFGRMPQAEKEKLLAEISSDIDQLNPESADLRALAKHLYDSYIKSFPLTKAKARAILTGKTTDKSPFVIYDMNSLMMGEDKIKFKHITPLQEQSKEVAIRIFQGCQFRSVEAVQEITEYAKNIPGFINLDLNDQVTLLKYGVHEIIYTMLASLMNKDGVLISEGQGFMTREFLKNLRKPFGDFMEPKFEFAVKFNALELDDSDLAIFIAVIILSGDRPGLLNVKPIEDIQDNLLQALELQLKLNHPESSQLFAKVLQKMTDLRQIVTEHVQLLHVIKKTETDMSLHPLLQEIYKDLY

[15] = biological target: T4, Peroxisome proliferator-activated receptor alpha (Mus musculus, UniProt P23204); assay: Agonist activity at mouse PPARalpha expressed in CV-1 cells by reporter gene assay; format: cell-based
T4 sequence (P23204 whole entry): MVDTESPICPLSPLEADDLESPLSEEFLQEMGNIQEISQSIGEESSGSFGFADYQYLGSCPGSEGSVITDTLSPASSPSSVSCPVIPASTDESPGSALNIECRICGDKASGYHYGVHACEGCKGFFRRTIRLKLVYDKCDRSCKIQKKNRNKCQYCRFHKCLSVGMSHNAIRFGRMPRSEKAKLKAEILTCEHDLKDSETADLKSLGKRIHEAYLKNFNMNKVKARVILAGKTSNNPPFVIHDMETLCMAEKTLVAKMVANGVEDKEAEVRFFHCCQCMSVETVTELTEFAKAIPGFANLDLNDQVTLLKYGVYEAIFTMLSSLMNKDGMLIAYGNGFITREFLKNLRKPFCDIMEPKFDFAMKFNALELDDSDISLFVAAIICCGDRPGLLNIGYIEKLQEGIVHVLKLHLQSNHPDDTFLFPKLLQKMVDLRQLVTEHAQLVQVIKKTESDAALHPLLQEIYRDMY

[16] = biological target: T5, Type-1 angiotensin II receptor (Homo sapiens, UniProt P30556); assay: Antagonist activity at human AT1 receptor expressed in CHO cells measured after overnight incubation by luciferase reporter gene assay; format: cell-based
T5 sequence (P30556 whole entry): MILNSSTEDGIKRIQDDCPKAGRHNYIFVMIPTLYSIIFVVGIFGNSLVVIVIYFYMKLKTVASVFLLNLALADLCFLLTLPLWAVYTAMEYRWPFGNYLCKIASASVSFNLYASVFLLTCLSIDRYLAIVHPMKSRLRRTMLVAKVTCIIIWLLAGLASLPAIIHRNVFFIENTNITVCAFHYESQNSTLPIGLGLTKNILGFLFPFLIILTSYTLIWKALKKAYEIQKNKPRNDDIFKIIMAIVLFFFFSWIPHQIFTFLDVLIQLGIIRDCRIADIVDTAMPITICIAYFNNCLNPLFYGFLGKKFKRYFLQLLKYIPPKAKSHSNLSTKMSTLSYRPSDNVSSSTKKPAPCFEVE

Rattus norvegicus [17] = assay: Antihypertensive activity in dosed SHR NCrl rat assessed as decrease in systolic blood pressure at 10 mg/kg, po administered daily for 12 days relative to baseline control; format: functional, organism-based; parameters: dose 10 mg/kg; conditions: Artery
[18] = biological target: T6, Peroxisome proliferator-activated receptor gamma (Mus musculus, UniProt P37238); assay: Partial agonist activity at mouse PPARgamma expressed in CV-1 cells by reporter gene assay; format: cell-based
T6 sequence (P37238 whole entry): T3 sequence (whole entry)

Rattus norvegicus [19] = assay: Antihypertensive activity in dosed SHR NCrl rat assessed as decrease in systolic blood pressure at 10 mg/kg, po administered daily for 12 days relative to vehicle-treated control control; format: functional, organism-based; parameters: dose 10 mg/kg; conditions: Artery
[20] = biological target: T7, Peroxisome proliferator-activated receptor delta (Mus musculus, UniProt P35396); assay: Agonist activity at mouse PPARdelta expressed in CV-1 cells by reporter gene assay; format: cell-based
T7 sequence (P35396 whole entry): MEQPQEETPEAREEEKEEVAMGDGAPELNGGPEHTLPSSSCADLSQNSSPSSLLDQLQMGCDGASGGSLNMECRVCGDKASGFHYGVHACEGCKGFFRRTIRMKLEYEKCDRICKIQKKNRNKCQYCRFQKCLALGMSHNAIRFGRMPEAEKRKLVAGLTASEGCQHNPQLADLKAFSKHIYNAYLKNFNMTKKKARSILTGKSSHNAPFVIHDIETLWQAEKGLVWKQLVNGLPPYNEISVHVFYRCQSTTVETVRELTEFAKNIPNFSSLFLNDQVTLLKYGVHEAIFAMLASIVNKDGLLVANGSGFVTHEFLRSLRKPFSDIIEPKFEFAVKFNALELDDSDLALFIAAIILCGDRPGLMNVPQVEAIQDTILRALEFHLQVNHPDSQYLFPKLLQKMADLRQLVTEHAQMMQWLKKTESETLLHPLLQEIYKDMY

[21] = biological target: T1, Peroxisome proliferator-activated receptor gamma; assay: Agonist activity at human PPARgamma expressed in CV-1 cells by reporter gene assay; format: cell-based
[22] = biological target: T6, Peroxisome proliferator-activated receptor gamma; assay: Agonist activity at mouse PPARgamma expressed in CV-1 cells by reporter gene assay; format: cell-based
[23] = biological target: T3, Peroxisome proliferator-activated receptor gamma (Mus musculus); assay: Agonist activity at mouse PPARgamma expressed in CV-1 cells by reporter gene assay relative to rosiglitazone; format: cell-based
Rattus norvegicus [24] = assay: Toxicity in Zucker fa/fa rat assessed as increase in body weight gain at 1 mg/kg, po qd for 5 days relative to vehicle-treated control control; format: organism-based; parameters: dose 1 mg/kg, route oral; conditions: in vivo, 120 h
Rattus norvegicus [25] = assay: Reduction in insulin level in Zucker fa/fa rat plasma at 1 mg/kg, po qd for 5 days relative to vehicle-treated control control; format: functional, organism-based; parameters: dose 1 mg/kg
Rattus norvegicus [26] = assay: Reduction in free fatty acid level in Zucker fa/fa rat plasma at 1 mg/kg, po qd for 5 days relative to vehicle-treated control control; format: functional, organism-based; parameters: dose 1 mg/kg
Rattus norvegicus [27] = assay: Toxicity in Zucker fa/fa rat assessed as increase in body weight gain at 75 mg/kg, po qd for 5 days relative to vehicle-treated control control; format: organism-based; parameters: dose 75 mg/kg, route oral; conditions: in vivo, 120 h
Rattus norvegicus [28] = assay: Reduction in triglyceride level in Zucker fa/fa rat plasma at 1 mg/kg, po qd for 5 days relative to vehicle-treated control control; format: functional, organism-based; parameters: dose 1 mg/kg

EC50 [15] [nM] | IC50 [16] [nM] | EC50 [20] [nM] | EC50 [21] [nM] | EC50 [22] [nM] | max activation [23] [%] | SMILES | also measured
> 10000 | > 10000 | > 10000 | 90 | 200 | 17 | CCCc1c(Cc2ccc(-c3ccccc3C(=O)O)cc2)c2cc(C(=O)NC(CC)c3ccccc3)ccc2n1OC (configuration not stated) | –
> 10000 | 1690 | > 10000 | 390 | 1020 | 32 | CCCc1nn2ccc(C(=O)NC(CC)c3ccccc3)cc2c1Cc1ccc(-c2ccccc2C(=O)O)cc1 (configuration not stated) | –
– | – | – | – | – | 9 | CCCc1nn2ccc(C(=O)NC(CC)c3ccccc3)cc2c1Cc1ccc(-c2ccccc2-c2nn[nH]n2)cc1 (configuration not stated) | –

Further lines, the compound ahead of its results:

SMILES | EC50 [15] [nM] | IC50 [16] [nM] | EC50 [20] [nM] | EC50 [21] [nM] | EC50 [22] [nM] | max activation [23] [%] | also measured
CCCCn1c(-c2ccc3nn(CCC)c(Cc4ccc(-c5ccccc5-c5nn[nH]n5)cc4)c3c2)nc2ccccc21 | > 10000 | 6 | > 10000 | – | – | – | Activity (Rattus norvegicus [1]): Active; AUC [2]: 8010 ng·h/mL; clearance [3]: 11 mL/min/kg; Vd [4]: 7.8 L/kg; Activity (Rattus norvegicus [5]): Active; Activity (Rattus norvegicus [6]): Active; half-life [7]: 14 h; AUC [8]: 36300 ng·h/mL; bioavailability [9]: 78%; Activity (Rattus norvegicus [10]): Active; Activity (Rattus norvegicus [11]): Active; EC50 [12]: 250 nM; max activation [13]: 40%; max activation [14]: 18%; Activity (Rattus norvegicus [17]): Active; EC50 [18]: 270 nM; Activity (Rattus norvegicus [19]): Active
CCCc1nc2ccc(C(=O)NC(CC)c3ccccc3)cc2n1Cc1ccc(-c2ccccc2C(=O)O)cc1 (configuration not stated) | – | 288 | – | – | – | – | –
CN(CCOc1ccc(C[C@H](Nc2ccccc2C(=O)c2ccccc2)C(=O)O)cc1)c1ccccn1 | – | – | – | – | – | – | Activity (Rattus norvegicus [24]): Toxic; Activity (Rattus norvegicus [25]): Active; Activity (Rattus norvegicus [26]): Active; Activity (Rattus norvegicus [27]): Non-toxic; Activity (Rattus norvegicus [28]): Active
CCCCn1c(-c2ccc3nn(CCC)c(Cc4ccc(-c5ccccc5C(=O)O)cc4)c3c2)nc2ccccc21 | > 10000 | 60 | > 10000 | 640 | 1390 | 37 | –
CCCn1nc2ccc(C(=O)NC(CC)c3ccccc3)cc2c1Cc1ccc(-c2ccccc2C(=O)O)cc1 (configuration not stated) | > 10000 | 1000 | > 10000 | – | – | – | EC50 [12]: 130 nM; max activation [13]: 24%; max activation [14]: 19%; EC50 [18]: 250 nM
